Measured values taken from ChEMBL document CHEMBL3885861, “Open TG-GATES”.

Organism: Rattus norvegicus
Experiment: Open TG-GATES - Regimen: Daily Repeat
Assay type: toxicity, organism-based, Sprague-Dawley
Design: regimen Daily Repeat, gender Male, age 6 weeks
Conditions: in vivo, po, route gavage; for APTT / Bas / Eos / Fbg / Hb / Ht / Lym / MCH / MCHC / MCV / Mono / Neu / PT / Plat / RBC / Ret / WBC: tissue Blood; for ALP / ALT / AST / BUN / CRE / DBIL / GLC / IP / K / Na / PL / RALB / TBIL / TC / TG / TP / gamma-GTP: tissue Plasma
[1] = 100 mg/kg, 72 h, dose level Middle, time 3 day
[2] = 100 mg/kg, […], dose level Middle, time 7 day
[3] = 100 mg/kg, […], dose level Middle, time 14 day
[4] = 100 mg/kg, […], dose level Middle, time 28 day
[5] = 300 mg/kg, 72 h, dose level High, time 3 day
[6] = 300 mg/kg, […], dose level High, time 7 day
[7] = 300 mg/kg, […], dose level High, time 14 day
[8] = 300 mg/kg, […], dose level High, time 28 day

`NS(=O)(=O)c1cc(C(=O)O)c(NCc2ccco2)cc1Cl` [FUROSEMIDE] was tested, and the TERMINAL_BW [1] was 230.7 g, the APTT [1] was 16.9 s and the Bas [1] was 0%. The Eos [1] was 0.8%, the Fbg [1] was 296.8 mg/dL and the Hb [1] was 13.1 g/dL. It also gave a Ht [1] of 38.3%, a Lym [1] of 81.2% and an MCH [1] of 21.4 pg. For the same molecule, the MCHC [1] was 34.1%, the MCV [1] was 62.7 fL and the Mono [1] was 2.2%. It also gave a Neu [1] of 14.8%, a PT [1] of 15 s and a Plat [1] of 123 x10_4/uL. It also gave an RBC [1] of 611.2 x10_4/ul, a Ret [1] of 4.2% and a WBC [1] of 107.2 x10_2/uL. It also gave an ALP [1] of 1617.4 IU/L, an ALT [1] of 47.4 IU/L and an AST [1] of 68.8 IU/L. For the same molecule, the BUN [1] was 22.8 mg/dL, the CRE [1] was 0.2 mg/dL and the DBIL [1] was 0.014 mg/dL. The GLC [1] was 176.6 mg/dL, the IP [1] was 6.3 mg/dL and the K [1] was 3.6 meq/L. The Na [1] was 141.4 meq/L, the PL [1] was 174 mg/dL and the RALB [1] was 2.6 g/dL. For the same molecule, the TBIL [1] was 0.054 mg/dL, the TC [1] was 90 mg/dL and the TG [1] was 65 mg/dL. For the same molecule, the TP [1] was 5.6 g/dL, the gamma-GTP [1] was 0.4 IU/L and the TERMINAL_BW [2] was 247.4 g. For the same molecule, the TERMINAL_BW [3] was 311 g, the TERMINAL_BW [4] was 380.8 g and the APTT [2] was 17.5 s. For the same molecule, the Bas [2] was 0.4%, the Eos [2] was 1.2% and the Fbg [2] was 278 mg/dL. The Hb [2] was 14.1 g/dL, the Ht [2] was 40.4% and the Lym [2] was 82%. The MCH [2] was 20.8 pg, the MCHC [2] was 34.9% and the MCV [2] was 59.7 fL. For the same molecule, the Mono [2] was 1.8%, the Neu [2] was 13.8% and the PT [2] was 16 s. The Plat [2] was 114.3 x10_4/uL, the RBC [2] was 678.6 x10_4/ul and the Ret [2] was 4.3%. For the same molecule, the WBC [2] was 110.3 x10_2/uL, the APTT [3] was 16.7 s and the Bas [3] was 0.6%. The Eos [3] was 1%, the Fbg [3] was 253.8 mg/dL and the Hb [3] was 14.7 g/dL. For the same molecule, the Ht [3] was 42.1%, the Lym [3] was 82.2% and the MCH [3] was 20.5 pg. The MCHC [3] was 34.9%, the MCV [3] was 58.6 fL and the Mono [3] was 2%. For the same molecule, the Neu [3] was 13.2%, the PT [3] was 15.7 s and the Plat [3] was 108.7 x10_4/uL. The RBC [3] was 717.4 x10_4/ul, the Ret [3] was 3.8% and the WBC [3] was 124.3 x10_2/uL. For the same molecule, the APTT [4] was 17.5 s, the Bas [4] was 1% and the Eos [4] was 1%. The Fbg [4] was 251.8 mg/dL, the Hb [4] was 14.7 g/dL and the Ht [4] was 42.7%. The Lym [4] was 80%, the MCH [4] was 19.2 pg and the MCHC [4] was 34.5%. It also gave an MCV [4] of 55.6 fL, a Mono [4] of 1.6% and a Neu [4] of 16.2%. The PT [4] was 15.7 s, the Plat [4] was 98.3 x10_4/uL and the RBC [4] was 769.2 x10_4/ul. It also gave a Ret [4] of 2.5%, a WBC [4] of 125.7 x10_2/uL and an ALP [2] of 1748.4 IU/L. For the same molecule, the ALT [2] was 43.8 IU/L, the AST [2] was 73.4 IU/L and the BUN [2] was 17.8 mg/dL. For the same molecule, the CRE [2] was 0.2 mg/dL, the DBIL [2] was 0.012 mg/dL and the GLC [2] was 179 mg/dL. The IP [2] was 6.2 mg/dL, the K [2] was 3.8 meq/L and the Na [2] was 142.4 meq/L. It also gave a PL [2] of 152 mg/dL, an RALB [2] of 2.6 g/dL and a TBIL [2] of 0.044 mg/dL. It also gave a TC [2] of 71.4 mg/dL, a TG [2] of 84.4 mg/dL and a TP [2] of 5.7 g/dL. For the same molecule, the gamma-GTP [2] was 0.2 IU/L, the ALP [3] was 1743.4 IU/L and the ALT [3] was 44.2 IU/L. It also gave an AST [3] of 78.6 IU/L, a BUN [3] of 24.6 mg/dL and a CRE [3] of 0.2 mg/dL. It also gave a DBIL [3] of 0.016 mg/dL, a GLC [3] of 177 mg/dL and an IP [3] of 6.5 mg/dL. For the same molecule, the K [3] was 3.7 meq/L, the Na [3] was 143.8 meq/L and the PL [3] was 160.6 mg/dL. The RALB [3] was 2.6 g/dL, the TBIL [3] was 0.048 mg/dL and the TC [3] was 78.4 mg/dL. For the same molecule, the TG [3] was 107.6 mg/dL, the TP [3] was 5.7 g/dL and the gamma-GTP [3] was 0.6 IU/L. For the same molecule, the ALP [4] was 1073.6 IU/L, the ALT [4] was 42.8 IU/L and the AST [4] was 70.4 IU/L. The BUN [4] was 24 mg/dL, the CRE [4] was 0.2 mg/dL and the DBIL [4] was 0.02 mg/dL. The GLC [4] was 178.2 mg/dL, the IP [4] was 5.7 mg/dL and the K [4] was 3.7 meq/L. The Na [4] was 144.8 meq/L, the PL [4] was 143.4 mg/dL and the RALB [4] was 2.6 g/dL. The TBIL [4] was 0.052 mg/dL, the TC [4] was 66 mg/dL and the TG [4] was 109.2 mg/dL. It also gave a TP [4] of 6 g/dL, a gamma-GTP [4] of 0.4 IU/L and a TERMINAL_BW [5] of 189.1 g. It also gave an APTT [5] of 20.9 s, a Bas [5] of 0.4% and an Eos [5] of 0.8%. It also gave a Fbg [5] of 315.2 mg/dL, a Hb [5] of 16.5 g/dL and a Ht [5] of 47%. For the same molecule, the Lym [5] was 80%, the MCH [5] was 20.8 pg and the MCHC [5] was 35.1%. The MCV [5] was 59.3 fL, the Mono [5] was 2.6% and the Neu [5] was 15.8%. It also gave a PT [5] of 15.6 s, a Plat [5] of 124.2 x10_4/uL and an RBC [5] of 794 x10_4/ul. It also gave a Ret [5] of 2%, a WBC [5] of 116.4 x10_2/uL and an ALP [5] of 1596.8 IU/L. For the same molecule, the ALT [5] was 46.2 IU/L, the AST [5] was 67.4 IU/L and the BUN [5] was 41.8 mg/dL. The CRE [5] was 0.2 mg/dL, the DBIL [5] was 0.02 mg/dL and the GLC [5] was 164.6 mg/dL. The IP [5] was 5.7 mg/dL, the K [5] was 3 meq/L and the Na [5] was 136.4 meq/L. For the same molecule, the PL [5] was 169.6 mg/dL, the RALB [5] was 2.9 g/dL and the TBIL [5] was 0.082 mg/dL. For the same molecule, the TC [5] was 90.2 mg/dL, the TG [5] was 48.4 mg/dL and the TP [5] was 6.2 g/dL. It also gave a gamma-GTP [5] of 1.2 IU/L, a TERMINAL_BW [6] of 216.8 g and a TERMINAL_BW [7] of 243.1 g. For the same molecule, the TERMINAL_BW [8] was 317.2 g, the APTT [6] was 16.2 s and the Bas [6] was 0.4%. For the same molecule, the Eos [6] was 1%, the Fbg [6] was 291 mg/dL and the Hb [6] was 15 g/dL. The Ht [6] was 42.7%, the Lym [6] was 81.6% and the MCH [6] was 20.8 pg. It also gave an MCHC [6] of 35.2%, an MCV [6] of 59.3 fL and a Mono [6] of 2.2%. The Neu [6] was 14.4%, the PT [6] was 16.2 s and the Plat [6] was 97.2 x10_4/uL. It also gave an RBC [6] of 720.2 x10_4/ul, a Ret [6] of 2.4% and a WBC [6] of 121.9 x10_2/uL. For the same molecule, the APTT [7] was 17 s, the Bas [7] was 0.5% and the Eos [7] was 1%. For the same molecule, the Fbg [7] was 309.5 mg/dL, the Hb [7] was 15.3 g/dL and the Ht [7] was 43.5%. The Lym [7] was 80%, the MCH [7] was 19.9 pg and the MCHC [7] was 35.2%. For the same molecule, the MCV [7] was 56.5 fL, the Mono [7] was 2% and the Neu [7] was 15.5%. The PT [7] was 15.9 s, the Plat [7] was 102.8 x10_4/uL and the RBC [7] was 769.5 x10_4/ul. For the same molecule, the Ret [7] was 3.6%, the WBC [7] was 113 x10_2/uL and the APTT [8] was 16 s. The Bas [8] was 1%, the Eos [8] was 1.2% and the Fbg [8] was 265.8 mg/dL. It also gave a Hb [8] of 15.6 g/dL, a Ht [8] of 45.6% and a Lym [8] of 80.8%. It also gave an MCH [8] of 19.3 pg, an MCHC [8] of 34.3% and an MCV [8] of 56.5 fL. It also gave a Mono [8] of 2%, a Neu [8] of 15.2% and a PT [8] of 16 s. The Plat [8] was 91 x10_4/uL, the RBC [8] was 806.5 x10_4/ul and the Ret [8] was 2%. It also gave a WBC [8] of 106.7 x10_2/uL, an ALP [6] of 1629.6 IU/L and an ALT [6] of 50.2 IU/L. For the same molecule, the AST [6] was 71 IU/L, the BUN [6] was 27 mg/dL and the CRE [6] was 0.2 mg/dL. For the same molecule, the DBIL [6] was 0.018 mg/dL, the GLC [6] was 169.8 mg/dL and the IP [6] was 4.9 mg/dL. The K [6] was 3.5 meq/L, the Na [6] was 141.8 meq/L and the PL [6] was 164.8 mg/dL. It also gave an RALB [6] of 2.7 g/dL, a TBIL [6] of 0.062 mg/dL and a TC [6] of 80.6 mg/dL. It also gave a TG [6] of 67 mg/dL, a TP [6] of 5.9 g/dL and a gamma-GTP [6] of 0.4 IU/L. It also gave an ALP [7] of 1713 IU/L, an ALT [7] of 48.2 IU/L and an AST [7] of 79 IU/L. For the same molecule, the BUN [7] was 28.8 mg/dL, the CRE [7] was 0.2 mg/dL and the DBIL [7] was 0.0175 mg/dL. The GLC [7] was 174 mg/dL, the IP [7] was 5.5 mg/dL and the K [7] was 3.4 meq/L. For the same molecule, the Na [7] was 142.8 meq/L, the PL [7] was 171.8 mg/dL and the RALB [7] was 2.7 g/dL. It also gave a TBIL [7] of 0.0575 mg/dL, a TC [7] of 83 mg/dL and a TG [7] of 84.2 mg/dL. The TP [7] was 5.9 g/dL, the gamma-GTP [7] was 0.5 IU/L and the ALP [8] was 1444.8 IU/L. It also gave an ALT [8] of 44.2 IU/L, an AST [8] of 72.2 IU/L and a BUN [8] of 30.8 mg/dL. It also gave a CRE [8] of 0.2 mg/dL, a DBIL [8] of 0.0175 mg/dL and a GLC [8] of 174.8 mg/dL. The IP [8] was 5.1 mg/dL, the K [8] was 3.5 meq/L and the Na [8] was 144.5 meq/L. It also gave a PL [8] of 150.2 mg/dL, an RALB [8] of 2.7 g/dL and a TBIL [8] of 0.055 mg/dL. It also gave a TC [8] of 69.8 mg/dL, a TG [8] of 92.2 mg/dL and a TP [8] of 6 g/dL. The gamma-GTP [8] was 0.5 IU/L.
